US11395857B2, “Radiolabeled melanocortin 1 receptor-specific alpha-melanocyte-stimulating hormone analogues for imaging or therapy” (PROVINCIAL HEALTH SERVICES AUTHORITY, priority 2018, dated 2022)
One block for each compound: values may come before it.

Assays:
[1] = Biodistribution of 177Lu-labeled αMSH analogues in mice bearing SK-MEL-1 human melanoma; details: male, mouse, total radioactivity; for tissue to tissue ratio at 1 h: 1 h p.i.; for tissue to tissue ratio at 1 h / tissue to tissue ratio at 4 h / tissue to tissue ratio at 24 h / tissue to tissue ratio at 120 h: NRG mice, SK-MEL-1 melanoma; for tissue to tissue ratio at 4 h: 4 h p.i.; for tissue to tissue ratio at 24 h: 24 h p.i.; for tissue to tissue ratio at 120 h: 120 h p.i.
Description: The SK-MEL-1 human melanoma cell line (HTB-67) was obtained commercially from ATCC. SK-MEL-1 cells were cultured in Eagle's Minimum Essential Medium (StemCell Technologies) under the same conditions as described in Example 1. Immunodeficient NOD.Cg-Rag1tm1Mom I12rgtm1Wjl/SzJ (NRG) male mice were obtained from an in-house breeding colony at the BC Cancer Research Centre. For tumor implantation, male NRG mice were anesthetized by inhalation with 2% isoflurane, and 5 million SK-MEL-1 cells were inoculated subcutaneously on the right dorsal flank. Mice were used for imaging or biodistribution studies when the tumors reached 6-8 mm in diameter in 16-20 days.
Biodistribution studies were performed as described in Example 3.

B16F10 mouse melanoma = assay: Biodistribution of 177Lu-labeled αMSH analogues in mice bearing B16F10 mouse melanoma; assay type: in vivo, C57BL/6J mice; details: among six αMSH analogues
Description: The B16-F10 mouse melanoma cells were cultured and inoculated in mice as described in Example 1.
For biodistribution studies, approximately 1-2 MBq of ^177Lu-labeled αMSH analogues via tail vein under anesthesia. At 1, 4, 24, and 120 h p.i., the mice were euthanized by CO2 inhalation. Organs/tissues were harvested and the radioactivity was measured as described in Example 1.

[2] = NRG (NOD.Cg-Rag1tm1Mom I12rgtm1Wjl/SzJ), fat, iv
[3] = NRG (NOD.Cg-Rag1tm1Mom I12rgtm1Wjl/SzJ), seminal glands, iv
[4] = NRG (NOD.Cg-Rag1tm1Mom Il2rgtm1Wjl/SzJ), SK-MEL-1 tumour
[5] = NRG (NOD.Cg-Rag1tm1Mom Il2rgtm1Wjl/SzJ), adrenal glands
[6] = NRG (NOD.Cg-Rag1tm1Mom Il2rgtm1Wjl/SzJ), blood
[7] = NRG (NOD.Cg-Rag1tm1Mom Il2rgtm1Wjl/SzJ), bone
[8] = NRG (NOD.Cg-Rag1tm1Mom Il2rgtm1Wjl/SzJ), brain
[9] = NRG (NOD.Cg-Rag1tm1Mom Il2rgtm1Wjl/SzJ), heart
[10] = NRG (NOD.Cg-Rag1tm1Mom Il2rgtm1Wjl/SzJ), intestine
[11] = NRG (NOD.Cg-Rag1tm1Mom Il2rgtm1Wjl/SzJ), kidneys
[12] = NRG (NOD.Cg-Rag1tm1Mom Il2rgtm1Wjl/SzJ), liver
[13] = NRG (NOD.Cg-Rag1tm1Mom Il2rgtm1Wjl/SzJ), lungs
[14] = NRG (NOD.Cg-Rag1tm1Mom Il2rgtm1Wjl/SzJ), muscle
[15] = NRG (NOD.Cg-Rag1tm1Mom Il2rgtm1Wjl/SzJ), pancreas
[16] = NRG (NOD.Cg-Rag1tm1Mom Il2rgtm1Wjl/SzJ), spleen
[17] = NRG (NOD.Cg-Rag1tm1Mom Il2rgtm1Wjl/SzJ), stomach
[18] = NRG (NOD.Cg-Rag1tm1Mom Il2rgtm1Wjl/SzJ), testes
[19] = NRG (NOD.Cg-Rag1tm1Mom Il2rgtm1Wjl/SzJ), thyroid
[20] = NRG (NOD.Cg-Rag1tm1Mom Il2rgtm1Wjl/SzJ), tumour/blood
[21] = NRG (NOD.Cg-Rag1tm1Mom Il2rgtm1Wjl/SzJ), tumour/kidney
[22] = NRG (NOD.Cg-Rag1tm1Mom Il2rgtm1Wjl/SzJ), tumour/muscle
[23] = NRG (NOD.Cg-Rag1tm1Mom Il2rgtm1Wjl/SzJ), urine

tissue uptake at 1 h [1, 2]: 2.4 ± 0.39 %ID/g
tissue uptake at 4 h [1, 2]: 2.69 ± 0.38 %ID/g
tissue uptake at 24 h [1, 2]: 2.1 ± 0.53 %ID/g
tissue uptake at 120 h [1, 2]: 1.13 ± 0.55 %ID/g
tissue uptake at 1 h [1, 3]: 1.81 ± 0.6 %ID/g
tissue uptake at 4 h [1, 3]: 1.66 ± 0.51 %ID/g
tissue uptake at 24 h [1, 3]: 1.22 ± 0.11 %ID/g
tissue uptake at 120 h [1, 3]: 0.44 ± 0.12 %ID/g
tissue uptake at 1 h [1, 4]: 6.62 ± 1.37 %ID/g
tissue uptake at 4 h [1, 4]: 9.46 ± 1.59 %ID/g
tissue uptake at 24 h [1, 4]: 30.5 ± 2.72 %ID/g
tissue uptake at 120 h [1, 4]: 26.5 ± 4.52 %ID/g
tissue uptake at 1 h [1, 5]: 6.47 ± 2.97 %ID/g
tissue uptake at 4 h [1, 5]: 5.69 ± 2.19 %ID/g
tissue uptake at 24 h [1, 5]: 5.66 ± 1.07 %ID/g
tissue uptake at 120 h [1, 5]: 4.04 ± 1.06 %ID/g
tissue uptake at 1 h [1, 6]: 32 ± 5.85 %ID/g
tissue uptake at 4 h [1, 6]: 22.7 ± 1.5 %ID/g
tissue uptake at 24 h [1, 6]: 14.7 ± 0.98 %ID/g
tissue uptake at 120 h [1, 6]: 1.93 ± 0.4 %ID/g
tissue uptake at 1 h [1, 7]: 1.98 ± 0.8 %ID/g
tissue uptake at 4 h [1, 7]: 1.38 ± 0.29 %ID/g
tissue uptake at 24 h [1, 7]: 1.21 ± 0.2 %ID/g
tissue uptake at 120 h [1, 7]: 0.49 ± 0.17 %ID/g
tissue uptake at 1 h [1, 8]: 0.49 ± 0.06 %ID/g
tissue uptake at 4 h [1, 8]: 0.39 ± 0.05 %ID/g
tissue uptake at 24 h [1, 8]: 0.32 ± 0.03 %ID/g
tissue uptake at 120 h [1, 8]: 0.13 ± 0.02 %ID/g
tissue uptake at 1 h [1, 9]: 7.94 ± 1.58 %ID/g
tissue uptake at 4 h [1, 9]: 5.71 ± 0.51 %ID/g
tissue uptake at 24 h [1, 9]: 4.57 ± 0.51 %ID/g
tissue uptake at 120 h [1, 9]: 1.4 ± 0.25 %ID/g
tissue uptake at 1 h [1, 10]: 3.1 ± 1 %ID/g
tissue uptake at 4 h [1, 10]: 2.26 ± 0.56 %ID/g
tissue uptake at 24 h [1, 10]: 1.89 ± 0.29 %ID/g
tissue uptake at 120 h [1, 10]: 0.54 ± 0.1 %ID/g
tissue uptake at 1 h [1, 11]: 12.5 ± 3.49 %ID/g
tissue uptake at 4 h [1, 11]: 9.78 ± 1.28 %ID/g
tissue uptake at 24 h [1, 11]: 9.72 ± 1.38 %ID/g
tissue uptake at 120 h [1, 11]: 4.08 ± 0.78 %ID/g
tissue uptake at 1 h [1, 12]: 7.36 ± 1.58 %ID/g
tissue uptake at 4 h [1, 12]: 7.11 ± 1.5 %ID/g
tissue uptake at 24 h [1, 12]: 8.35 ± 1.86 %ID/g
tissue uptake at 120 h [1, 12]: 4.38 ± 1.08 %ID/g
tissue uptake at 1 h [1, 13]: 17.6 ± 5.68 %ID/g
tissue uptake at 4 h [1, 13]: 11.8 ± 2.51 %ID/g
tissue uptake at 24 h [1, 13]: 9.06 ± 1.04 %ID/g
tissue uptake at 120 h [1, 13]: 2.35 ± 0.54 %ID/g
tissue uptake at 1 h [1, 14]: 2.13 ± 0.4 %ID/g
tissue uptake at 4 h [1, 14]: 1.96 ± 0.3 %ID/g
tissue uptake at 24 h [1, 14]: 1.5 ± 0.19 %ID/g
tissue uptake at 120 h [1, 14]: 0.31 ± 0.07 %ID/g
tissue uptake at 1 h [1, 15]: 3.09 ± 0.53 %ID/g
tissue uptake at 4 h [1, 15]: 2.55 ± 0.15 %ID/g
tissue uptake at 24 h [1, 15]: 2.27 ± 0.34 %ID/g
tissue uptake at 120 h [1, 15]: 0.7 ± 0.13 %ID/g
tissue uptake at 1 h [1, 16]: 5.65 ± 1.09 %ID/g
tissue uptake at 4 h [1, 16]: 4.21 ± 1.31 %ID/g
tissue uptake at 24 h [1, 16]: 6.19 ± 1 %ID/g
tissue uptake at 120 h [1, 16]: 6.86 ± 2.08 %ID/g
tissue uptake at 1 h [1, 17]: 1.03 ± 0.45 %ID/g
tissue uptake at 4 h [1, 17]: 1.02 ± 0.53 %ID/g
tissue uptake at 24 h [1, 17]: 1.44 ± 0.28 %ID/g
tissue uptake at 120 h [1, 17]: 0.47 ± 0.12 %ID/g
tissue uptake at 1 h [1, 18]: 4.23 ± 0.94 %ID/g
tissue uptake at 4 h [1, 18]: 5.09 ± 0.82 %ID/g
tissue uptake at 24 h [1, 18]: 4.89 ± 0.87 %ID/g
tissue uptake at 120 h [1, 18]: 3.03 ± 0.37 %ID/g
tissue uptake at 1 h [1, 19]: 7.45 ± 1.35 %ID/g
tissue uptake at 4 h [1, 19]: 6.83 ± 0.84 %ID/g
tissue uptake at 24 h [1, 19]: 11.6 ± 1.26 %ID/g
tissue uptake at 120 h [1, 19]: 12.4 ± 2.26 %ID/g
tissue to tissue ratio at 1 h [1, 20]: 0.21 ± 0.02
tissue to tissue ratio at 4 h [1, 20]: 0.42 ± 0.04
tissue to tissue ratio at 24 h [1, 20]: 2.08 ± 0.26
tissue to tissue ratio at 1 h [1, 21]: 0.54 ± 0.07
tissue to tissue ratio at 4 h [1, 21]: 0.96 ± 0.04
tissue to tissue ratio at 24 h [1, 21]: 3.19 ± 0.46
tissue to tissue ratio at 120 h [1, 21]: 6.57 ± 0.71
tissue to tissue ratio at 1 h [1, 22]: 3.11 ± 0.29
tissue to tissue ratio at 4 h [1, 22]: 4.85 ± 0.53
tissue to tissue ratio at 24 h [1, 22]: 20.5 ± 2.51
tissue to tissue ratio at 120 h [1, 22]: 91.3 ± 35.8
excreta dose per gram or mL at 1 h [1, 23]: 51 ± 21.8 %ID/g
excreta dose per gram or mL at 4 h [1, 23]: 11.2 ± 6.54 %ID/g
excreta dose per gram or mL at 24 h [1, 23]: 20.4 ± 7.69 %ID/g
excreta dose per gram or mL at 120 h [1, 23]: 6.46 ± 1.57 %ID/g
Compound: CCCC[C@H](NC(=O)CN1CCC(NC(=O)[C@H](CCCCNC(=O)CN2CCN(CC(=O)O)CCN(CC(=O)O)CCN(CC(=O)O)CC2)NC(=O)CNC(=O)CCCc2ccc(I)cc2)CC1)C(=O)N[C@H]1CC(=O)NCCCC[C@@H](C(N)=O)N(C)C(=O)[C@H](Cc2c[nH]c3ccccc23)NC(=O)[C@H](CCCNC(=N)N)N(C)C(=O)[C@@H](Cc2ccccc2)NC(=O)[C@H](Cc2c[nH]cn2)NC1=O [^177Lu-labeled CCZ01148, metal not drawn]

Compound: CCCC[C@H](NC(=O)CN1CCC(NC(=O)[C@H](CCCCNC(=O)CN2CCN(CC(=O)O)CCN(CC(=O)O)CCN(CC(=O)O)CC2)NC(=O)[C@H](CCC(=O)O)NC(=O)CCCc2ccc(I)cc2)CC1)C(=O)N[C@H]1CC(=O)NCCCC[C@@H](C(N)=O)N(C)C(=O)[C@H](Cc2c[nH]c3ccccc23)NC(=O)[C@H](CCCNC(=N)N)N(C)C(=O)[C@@H](Cc2ccccc2)NC(=O)[C@H](Cc2c[nH]cn2)NC1=O [CCZ01118, [4-(p-iodophenyl)butanoyl]-Glu-Lys(DOTA)-Pip-Nle-cyclo[Asp-His-D-Phe-N-Me-Arg-Trp-N-Me-Lys]-NH2]
Improvement in tumour uptake retention (B16F10 mouse melanoma): showed the most improvement in tumour uptake retention
